Measured values reported in ChEMBL document CHEMBL4138296, “Nonacidic Chemotype Possessing N-Acylated Piperidine Moiety as Potent Farnesoid X Receptor (FXR) Antagonists” (ACS Med Chem Lett, 2018).
Activity calls are given as the source filed them. No cut-off for these calls is given here.

What was measured:
[1] = target: T1, Peroxisome proliferator-activated receptor delta (Homo sapiens) (UniProt Q03181); experiment: Antagonist activity at PPARdelta (unknown origin) assessed as inhibition of GW501516-induced response at 1 uM by luciferase reporter gene assay
T1 sequence (whole entry): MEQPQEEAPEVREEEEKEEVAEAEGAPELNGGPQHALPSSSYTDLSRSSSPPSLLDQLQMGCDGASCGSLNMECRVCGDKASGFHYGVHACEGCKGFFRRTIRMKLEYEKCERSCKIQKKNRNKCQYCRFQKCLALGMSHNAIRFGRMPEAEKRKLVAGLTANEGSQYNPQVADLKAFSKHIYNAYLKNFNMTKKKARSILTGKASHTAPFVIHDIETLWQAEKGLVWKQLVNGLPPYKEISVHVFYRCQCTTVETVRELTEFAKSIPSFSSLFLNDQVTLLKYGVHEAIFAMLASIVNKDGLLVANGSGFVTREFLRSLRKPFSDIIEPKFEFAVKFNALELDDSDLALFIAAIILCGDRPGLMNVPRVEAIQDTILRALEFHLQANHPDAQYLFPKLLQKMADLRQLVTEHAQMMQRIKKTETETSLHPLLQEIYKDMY

[2] = target: T2, Peroxisome proliferator-activated receptor alpha (Homo sapiens) (UniProt Q07869); experiment: Agonist activity at PPARalpha (unknown origin) at 1 uM by luciferase reporter gene assay
T2 sequence (whole entry): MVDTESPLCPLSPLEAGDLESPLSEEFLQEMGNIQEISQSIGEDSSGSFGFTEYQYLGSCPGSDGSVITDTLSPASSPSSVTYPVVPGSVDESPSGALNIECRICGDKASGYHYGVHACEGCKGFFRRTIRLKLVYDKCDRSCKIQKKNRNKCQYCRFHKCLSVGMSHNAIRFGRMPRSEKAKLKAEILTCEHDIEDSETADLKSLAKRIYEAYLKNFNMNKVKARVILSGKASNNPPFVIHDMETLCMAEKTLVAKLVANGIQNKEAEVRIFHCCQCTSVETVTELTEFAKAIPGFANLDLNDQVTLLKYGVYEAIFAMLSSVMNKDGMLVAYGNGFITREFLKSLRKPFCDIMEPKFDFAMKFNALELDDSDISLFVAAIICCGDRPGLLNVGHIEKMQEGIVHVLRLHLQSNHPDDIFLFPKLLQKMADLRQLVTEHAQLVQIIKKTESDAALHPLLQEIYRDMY

Bile acid receptor = target: T3, Bile acid receptor (Homo sapiens, UniProt Q96RI1); experiment: Antagonist activity at human FXR expressed in Hep3B cells assessed as inhibition of CDCA-induced FXR response element driven luciferase activity after 24 hrs; assay type: cell-based
T3 sequence (Q96RI1 whole entry): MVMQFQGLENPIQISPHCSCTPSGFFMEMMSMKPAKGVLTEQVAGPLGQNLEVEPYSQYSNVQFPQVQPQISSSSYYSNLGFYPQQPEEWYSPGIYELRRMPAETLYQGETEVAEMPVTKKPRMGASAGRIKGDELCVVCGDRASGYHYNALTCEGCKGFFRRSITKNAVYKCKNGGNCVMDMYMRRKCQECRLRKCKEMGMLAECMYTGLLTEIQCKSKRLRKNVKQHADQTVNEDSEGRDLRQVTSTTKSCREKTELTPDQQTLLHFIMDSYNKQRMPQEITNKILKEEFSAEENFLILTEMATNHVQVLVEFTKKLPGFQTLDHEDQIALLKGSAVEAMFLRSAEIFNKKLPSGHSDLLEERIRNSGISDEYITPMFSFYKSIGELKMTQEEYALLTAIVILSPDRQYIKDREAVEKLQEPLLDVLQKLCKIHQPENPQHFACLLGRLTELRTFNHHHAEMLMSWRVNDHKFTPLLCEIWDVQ

[3] = target: T4, Retinoic acid receptor alpha (Homo sapiens) (UniProt P10276); experiment: Antagonist activity at RARalpha (unknown origin) assessed as inhibition of ATRA-induced response at 1 uM by luciferase reporter gene assay
T4 sequence (whole entry): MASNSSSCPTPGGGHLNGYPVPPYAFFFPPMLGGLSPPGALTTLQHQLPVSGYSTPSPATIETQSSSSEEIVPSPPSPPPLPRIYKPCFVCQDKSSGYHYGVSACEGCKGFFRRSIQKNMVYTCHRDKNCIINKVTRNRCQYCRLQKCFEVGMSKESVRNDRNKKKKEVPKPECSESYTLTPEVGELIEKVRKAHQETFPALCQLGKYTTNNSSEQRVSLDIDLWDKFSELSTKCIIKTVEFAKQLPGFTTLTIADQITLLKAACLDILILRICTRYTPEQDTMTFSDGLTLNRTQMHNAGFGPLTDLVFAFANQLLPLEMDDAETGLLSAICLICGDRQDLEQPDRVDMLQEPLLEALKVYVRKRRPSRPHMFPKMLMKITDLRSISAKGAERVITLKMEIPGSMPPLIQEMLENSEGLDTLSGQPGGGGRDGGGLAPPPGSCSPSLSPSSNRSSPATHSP

[4] = target: T5, G-protein coupled bile acid receptor 1 (Homo sapiens) (UniProt Q8TDU6); experiment: Agonist activity at TGR5 (unknown origin) at 1 uM by luciferase reporter gene assay; assay type: functional
T5 sequence (whole entry): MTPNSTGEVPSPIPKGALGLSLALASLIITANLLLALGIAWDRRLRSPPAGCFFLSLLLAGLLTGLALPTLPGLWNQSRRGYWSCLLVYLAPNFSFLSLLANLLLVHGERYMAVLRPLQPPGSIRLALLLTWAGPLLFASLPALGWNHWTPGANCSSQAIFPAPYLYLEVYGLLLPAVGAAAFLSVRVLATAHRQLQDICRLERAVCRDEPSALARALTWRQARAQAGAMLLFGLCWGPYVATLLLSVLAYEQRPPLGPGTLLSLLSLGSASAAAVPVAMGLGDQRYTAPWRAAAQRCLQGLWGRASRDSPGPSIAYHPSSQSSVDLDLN

[5] = target: T1, Peroxisome proliferator-activated receptor delta (Homo sapiens); experiment: Agonist activity at PPARdelta (unknown origin) at 1 uM by luciferase reporter gene assay
[6] = target: T4, Retinoic acid receptor alpha (Homo sapiens); experiment: Agonist activity at RARalpha (unknown origin) at 1 uM by luciferase reporter gene assay
[7] = target: T6, Retinoic acid receptor RXR-alpha (Homo sapiens) (UniProt P19793); experiment: Agonist activity at human RXRalpha expressed in HEK293T cells at 1 uM by luciferase reporter gene assay; assay type: cell-based
T6 sequence (whole entry): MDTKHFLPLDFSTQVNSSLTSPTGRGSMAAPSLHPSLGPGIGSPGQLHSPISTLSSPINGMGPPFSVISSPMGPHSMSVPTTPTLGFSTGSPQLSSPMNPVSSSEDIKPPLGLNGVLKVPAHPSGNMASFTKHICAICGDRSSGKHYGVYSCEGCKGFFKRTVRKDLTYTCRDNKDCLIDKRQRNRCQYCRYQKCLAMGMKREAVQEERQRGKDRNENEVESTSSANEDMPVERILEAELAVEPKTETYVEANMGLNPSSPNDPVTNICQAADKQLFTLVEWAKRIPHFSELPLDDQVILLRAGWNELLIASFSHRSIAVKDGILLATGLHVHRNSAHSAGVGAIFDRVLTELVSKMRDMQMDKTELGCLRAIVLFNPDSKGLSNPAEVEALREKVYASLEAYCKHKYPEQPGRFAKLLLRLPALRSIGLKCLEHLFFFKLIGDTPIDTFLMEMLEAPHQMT

**Q.** Which inhibition [1] does the source give for `Cc1ccc2nc([C@H](CC3CCN(C(=O)C(C)C)CC3)N3C(=O)CN(c4ccc(Oc5ccccc5)cc4)C3=O)n(C)c2c1` here?
**A.** inactive

**Q.** And the Activity [2]?
**A.** inactive

**Q.** And the IC50 (Bile acid receptor)?
**A.** < 1 pM

**Q.** And the inhibition [3]?
**A.** inactive

**Q.** And the Activity [4]?
**A.** inactive

**Q.** What about the Activity [5] of the same molecule?
**A.** inactive

**Q.** What about the Activity [6] of the same molecule?
**A.** inactive

**Q.** And the Activity [7]?
**A.** inactive
